According to paper PMC11850406, “Large-scale screening of HIV-1 T-cell epitopes restricted by 12 prevalent HLA-A allotypes in Northeast Asia and universal detection of HIV-1-specific CD8^+ T cells” (Frontiers in Microbiology, 2025):
Like-named read-outs stand apart in the source and are kept apart here. Where no end group is shown, it is not given here.

What was measured:
HLA-A0206 = target: T1, HLA-A0206 (Homo sapiens, UniProt P04439, D140Y/D185E/D98H/E176V/E277Q/F33Y/G131W/G231S/I119V/I121R/I166T/I218V/L300P/L318F/N151K/N90K/P208A/P217A/Q86G/Q94H/R138H/R169H/T345S); assay: Peptide competitive binding assay, HMy2.CIR cells expressing A0206; details: for 5-μM inhibition (%) / inhibition at 5 µM: peptide 5 μM vs FITC-labeled reference peptide 300 nM; for 5-μM inhibition (%) / inhibition at 5 µM / inhibition at 15 µM / 15-μM inhibition (%): 24 h, 4°C, flow cytometry; for inhibition at 15 µM / 15-μM inhibition (%): peptide 15 μM vs FITC-labeled reference peptide 300 nM
T1 construct: expressed in transfected cells; host or cells: HMy2.CIR

HLA-A0207 = target: T2, HLA-A0207 (Homo sapiens, UniProt P04439, D140Y/D185E/D98H/E176V/E277Q/G131W/G231S/I119V/I121R/I166T/I218V/L300P/L318F/N151K/N90K/P208A/P217A/Q86G/Q94H/R138H/R169H/T345S/Y123C); assay: Peptide competitive binding assay, HMy2.CIR cells expressing A0207; details: 24 h, 4°C, flow cytometry; for 5-μM inhibition (%) / inhibition at 5 µM: peptide 5 μM vs FITC-labeled reference peptide 300 nM; for 15-μM inhibition (%) / inhibition at 15 µM: peptide 15 μM vs FITC-labeled reference peptide 300 nM
T2 construct: expressed in transfected cells; host or cells: HMy2.CIR

HLA-A0201 = target: T3, HLA-A0201 (Homo sapiens, UniProt P04439, D140Y/D185E/D98H/E176V/E277Q/G131W/G231S/I119V/I121R/I166T/I218V/L300P/L318F/N151K/N90K/P208A/P217A/Q86G/Q94H/R138H/R169H/T345S); assay: cell-based; type: binding; details: for inhibition at 5 µM / inhibition at 15 µM / 5-μM inhibition (%) / 15-μM inhibition (%): A0201, 24 h, 4°C, flow cytometry; for inhibition at 5 µM / 5-μM inhibition (%): peptide 5 μM vs FITC-labeled reference peptide 300 nM; for inhibition at 5 µM: read-out: 5-μM inhibition (%); for inhibition at 15 µM / 15-μM inhibition (%): peptide 15 μM vs FITC-labeled reference peptide 300 nM; for inhibition at 15 µM: read-out: 15-μM inhibition (%)
T3 construct: expressed in transfected cells; host or cells: HMy2.CIR

HLA-A0203 = target: T4, HLA-A0203 (Homo sapiens, UniProt P04439, A173T/D140Y/D185E/D98H/E277Q/G131W/G231S/I119V/I121R/I166T/I218V/L180W/L300P/L318F/N151K/N90K/P208A/P217A/Q86G/Q94H/R138H/R169H/T345S); assay: cell-based; type: binding
T4 construct: expressed in transfected cells; host or cells: HMy2.CIR

HLA-A0301 = target: T5, HLA-A0301 (Homo sapiens, UniProt P04439); assay: cell-based; type: binding; details: for inhibition at 5 µM: read-out: 5-μM inhibition (%); for inhibition at 15 µM: read-out: 15-μM inhibition (%)
T5 construct: expressed in transfected cells; host or cells: HMy2.CIR

HLA-A0101 = target: T6, HLA-A0101 (Homo sapiens, UniProt P04439, A114D/A174V/A182V/D101N/D185E/E176A/E190D/L180R/Q94H/R68K/S129P/T187R/V100A/V91M/W191G); assay: Peptide competitive binding assay, HMy2.CIR cells expressing A0101; details: for inhibition at 5 µM / inhibition at 15 µM: 24 h; for inhibition at 5 µM: read-out: 5-μM inhibition (%); for inhibition at 15 µM: read-out: 15-μM inhibition (%)
T6 construct: expressed in transfected cells; host or cells: HMy2.CIR

HLA-A3001 = target: T7, HLA-A3001 (Homo sapiens, UniProt P04439, D140H/D185E/E176W/F33S/G80R/H175R/K168Q/R138E/R41S); assay: cell-based; type: binding; details: for 5-μM inhibition (%) / 15-μM inhibition (%) / inhibition at 5 µM / inhibition at 15 µM: 24 h; for inhibition at 5 µM: read-out: 5-μM inhibition (%); for inhibition at 15 µM: read-out: 15-μM inhibition (%)
T7 construct: expressed in transfected cells; host or cells: HMy2.CIR

HLA-A1102 = HLA-A1102 (Homo sapiens, UniProt P04439, A114D/D185E/E176A/E43K/F33Y/L180Q/S129P/T187R); assay: cell-based; type: binding; details: A1102, 24 h, 4°C, flow cytometry
HLA-A1101 = target: T8, HLA-A1101 (Homo sapiens, UniProt P04439, A114D/D185E/E176A/F33Y/L180Q/S129P/T187R); assay: cell-based; type: binding
T8 construct: expressed in transfected cells; host or cells: HMy2.CIR

[1] = A0301, peptide 5 μM vs FITC-labeled reference peptide 300 nM, 24 h, 4°C, flow cytometry
[2] = A0301, peptide 15 μM vs FITC-labeled reference peptide 300 nM, 24 h, 4°C, flow cytometry
[3] = A0101, peptide 5 μM vs FITC-labeled reference peptide 300 nM, 4°C, flow cytometry
[4] = A0101, peptide 15 μM vs FITC-labeled reference peptide 300 nM, 4°C, flow cytometry
[5] = A3001, peptide 5 μM vs FITC-labeled reference peptide 300 nM, 4°C, flow cytometry
[6] = A3001, peptide 15 μM vs FITC-labeled reference peptide 300 nM, 4°C, flow cytometry

T5 sequence (P61769 21-119): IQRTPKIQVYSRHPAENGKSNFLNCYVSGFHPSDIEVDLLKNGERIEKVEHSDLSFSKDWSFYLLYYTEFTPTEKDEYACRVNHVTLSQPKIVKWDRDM
T5 sequence (P04439 25-365): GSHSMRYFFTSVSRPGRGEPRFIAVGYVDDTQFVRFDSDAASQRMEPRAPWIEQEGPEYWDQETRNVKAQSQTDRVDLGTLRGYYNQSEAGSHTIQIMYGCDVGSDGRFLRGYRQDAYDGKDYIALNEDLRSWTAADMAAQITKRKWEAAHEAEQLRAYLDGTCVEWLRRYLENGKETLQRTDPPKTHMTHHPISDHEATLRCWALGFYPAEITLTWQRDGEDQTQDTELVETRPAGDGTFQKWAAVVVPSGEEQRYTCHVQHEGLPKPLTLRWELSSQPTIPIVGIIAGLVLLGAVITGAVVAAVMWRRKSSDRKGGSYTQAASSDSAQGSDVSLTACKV
Chain of HLA-A1102 (P04439 25-365 limits assumed, stated change not applied): as the sequence (P04439 25-365) above

KVILVAVHV [Peptide P74]
5-μM inhibition (%) (HLA-A0206): 20.64%

VLDVGDAYF [Peptide P81]
5-μM inhibition (%) (HLA-A0207): 0.00% | 15-μM inhibition (%) (HLA-A0207): 23.16%

QLPEKDSWTV [Peptide P14]
inhibition at 5 µM (HLA-A0207): 0% | inhibition at 15 µM (HLA-A0207): 8.35% | IC50 (HLA-A0201): 5 to 15 µM | inhibition at 5 µM (HLA-A0201): 27.6% | inhibition at 15 µM (HLA-A0201): 81.5%

RLINCNTSV [Peptide P6]
inhibition at 5 µM (HLA-A0206): 14.6% | inhibition at 15 µM (HLA-A0206): 41.8% | IC50 (HLA-A0203): 5 to 15 µM | inhibition at 5 µM (HLA-A0203; A0203, peptide 5 μM vs FITC-labeled reference peptide 300 nM, 24 h, 4°C, flow cytometry, read-out: 5-μM inhibition (%)): 15.8% | inhibition at 15 µM (HLA-A0203; A0203, peptide 15 μM vs FITC-labeled reference peptide 300 nM, 24 h, 4°C, flow cytometry, read-out: 15-μM inhibition (%)): 70.7% | inhibition at 5 µM (HLA-A0201): 0.13% | inhibition at 15 µM (HLA-A0201): 23.6%

QIINMWQEV [Peptide P73]
5-μM inhibition (%) (HLA-A0206): 25.71% | 15-μM inhibition (%) (HLA-A0206): 27.84%

SLFNTVATL [Peptide P10]
5-μM inhibition (%) (HLA-A0203; A0203, peptide 5 μM vs FITC-labeled reference peptide 300 nM, 24 h, 4°C, flow cytometry): 20.39% | 15-μM inhibition (%) (HLA-A0203; A0203, peptide 15 μM vs FITC-labeled reference peptide 300 nM, 24 h, 4°C, flow cytometry): 42.50% | 5-μM inhibition (%) (HLA-A0207): 0.00% | 15-μM inhibition (%) (HLA-A0207): 7.34% | 5-μM inhibition (%) (HLA-A0201): 15.75% | 15-μM inhibition (%) (HLA-A0201): 31.36%

KLVSSGIRK [Peptide P85]
5-μM inhibition (%) (HLA-A0301; [1]): 19.14% | 15-μM inhibition (%) (HLA-A0301; [2]): 38.04%

VTDSQYALGI [Peptide P69]
inhibition at 5 µM (HLA-A0101; [3]): 35.6% | inhibition at 15 µM (HLA-A0101; [4]): 71.2% | IC50 (HLA-A0101; read-out: Affinity): 5 to 15 µM

KIVRMYSPV [Peptide P71]
5-μM inhibition (%) (HLA-A0206): 6.54% | 15-μM inhibition (%) (HLA-A0206): 14.21%

YLKDQKFLGL [Peptide P78]
5-μM inhibition (%) (HLA-A0207): 11.50% | 15-μM inhibition (%) (HLA-A0207): 30.40%

RLRGFILVA [Peptide P92]
5-μM inhibition (%) (HLA-A3001; [5]): 18.53% | 15-μM inhibition (%) (HLA-A3001; [6]): 39.48%

RVRQGYSPL [Peptide P91]
IC50 (HLA-A3001): < 5 µM | inhibition at 5 µM (HLA-A3001; [5]): 92.4% | inhibition at 15 µM (HLA-A3001; [6]): 100%

LVDTIAIAV [Peptide P77]
5-μM inhibition (%) (HLA-A0207): 9.36% | 15-μM inhibition (%) (HLA-A0207): 23.40%

KVVPRRKAK [Peptide P93]
5-μM inhibition (%) (HLA-A3001; [5]): 16.92% | 15-μM inhibition (%) (HLA-A3001; [6]): 41.10%

CC[C@H](C)[C@H](NC(=O)[C@H](C)N)C(=O)N[C@@H](Cc1ccccc1)C(=O)N[C@@H](CCC(N)=O)C(=O)N[C@@H](CO)C(=O)N[C@@H](CO)C(=O)N[C@@H](CCSC)C(=O)N[C@H](C(=O)N[C@@H](CCCCN)C(=O)O)[C@@H](C)O [Peptide P40]
inhibition at 5 µM (HLA-A1102; peptide 5 μM vs FITC-labeled reference peptide 300 nM, read-out: 5-μM inhibition (%)): 2.89% | inhibition at 15 µM (HLA-A1102; peptide 15 μM vs FITC-labeled reference peptide 300 nM, read-out: 15-μM inhibition (%)): 16.1% | IC50 (HLA-A1101): < 5 µM | inhibition at 5 µM (HLA-A1101; A1101, peptide 5 μM vs FITC-labeled reference peptide 300 nM, 24 h, 4°C, flow cytometry, read-out: 5-μM inhibition (%)): 67.9% | inhibition at 15 µM (HLA-A1101; A1101, peptide 15 μM vs FITC-labeled reference peptide 300 nM, 24 h, 4°C, flow cytometry, read-out: 15-μM inhibition (%)): 89.5% | IC50 (HLA-A3001): < 5 µM | inhibition at 5 µM (HLA-A3001): 60.4% | inhibition at 15 µM (HLA-A3001): 67.7% | IC50 (HLA-A0301): 5 to 15 µM | inhibition at 5 µM (HLA-A0301; 24 h): 22.4% | inhibition at 15 µM (HLA-A0301; 24 h): 50.6%

YMEAEVIPA [Peptide P82]
5-μM inhibition (%) (HLA-A0207): 13.67% | 15-μM inhibition (%) (HLA-A0207): 30.79%

KLAGRWPVK [Peptide P95]
IC50 (HLA-A3001): < 5 µM | inhibition at 5 µM (HLA-A3001; [5]): 83.7% | inhibition at 15 µM (HLA-A3001; [6]): 95.9% | IC50 (HLA-A0301): 5 to 15 µM | inhibition at 5 µM (HLA-A0301; [1]): 28.9% | inhibition at 15 µM (HLA-A0301; [2]): 53.7%

YVDRFFKTL [Peptide P76]
5-μM inhibition (%) (HLA-A0207): 11.90% | 15-μM inhibition (%) (HLA-A0207): 30.60%

QLTEVVQKV [Peptide P80]
5-μM inhibition (%) (HLA-A0207): 20.67% | 15-μM inhibition (%) (HLA-A0207): 25.60%

YSENSSEYY [Peptide P68]
IC50 (HLA-A0101; A0101, class from inhibition at 5 and 15 μM of FITC-labeled reference peptide binding, read-out: Affinity): < 5 µM | inhibition at 5 µM (HLA-A0101; [3]): 83.8% | inhibition at 15 µM (HLA-A0101; [4]): 94.2%

KVYLSWVPA [Peptide P94]
5-μM inhibition (%) (HLA-A3001; [5]): 27.40% | 15-μM inhibition (%) (HLA-A3001; [6]): 45.93%

YQLEKDPIV [Peptide P11]
5-μM inhibition (%) (HLA-A0207): 5.57% | 15-μM inhibition (%) (HLA-A0207): 12.66% | 5-μM inhibition (%) (HLA-A0201): 5.87% | 15-μM inhibition (%) (HLA-A0201): 28.56%

YQYMDDLYV [Peptide P15]
inhibition at 5 µM (HLA-A0207): 20.1% | inhibition at 15 µM (HLA-A0207): 27.6% | IC50 (HLA-A0201): < 5 µM | inhibition at 5 µM (HLA-A0201): 56.5% | inhibition at 15 µM (HLA-A0201): 83%

KIILVAVHV [Peptide P75]
5-μM inhibition (%) (HLA-A0206): 3.69% | 15-μM inhibition (%) (HLA-A0206): 5.11%

WIILGLNKI [Peptide P72]
IC50 (HLA-A0206; class from inhibition at 5 and 15 μM of FITC-labeled reference peptide binding, read-out: Affinity): 5 to 15 µM | inhibition at 5 µM (HLA-A0206): 40.9% | inhibition at 15 µM (HLA-A0206): 67.3%

EADGKVSQNY [Peptide P67]
IC50 (HLA-A0101): 5 to 15 µM | inhibition at 5 µM (HLA-A0101): 21.4% | inhibition at 15 µM (HLA-A0101): 62%

ASRELERFA [Peptide P90]
IC50 (HLA-A3001): 5 to 15 µM | inhibition at 5 µM (HLA-A3001; [5]): 17.7% | inhibition at 15 µM (HLA-A3001; [6]): 58%

LLYWGQELK [Peptide P84]
IC50 (HLA-A0301): 5 to 15 µM | inhibition at 5 µM (HLA-A0301; [1]): 25.7% | inhibition at 15 µM (HLA-A0301; [2]): 56.2%
